The structures appear in SMILES notation.

Compound `CSc1ccc(C2CC3CCC2N3)cc1.Cl` (centres unmarked) gave a melting point of 216.5 to 218 °C.
As for `Cl.N=C(N)c1ccc(C2CC3CCC2N3)cc1` (centres unmarked), the melting point was in the range of 198.5 to 201 °C.
The same measure for `Cl.O=C(O)c1ccc(C2CC3CCC2N3)cc1` (centres unmarked): 261.5 to 264.5 °C; for `COC(=O)c1ccc(C2CC3CCC2N3)cc1.Cl` (centres unmarked): 235 to 236 °C; for `Cl.Oc1ccc(C2CC3CCC2N3)cc1` (centres unmarked): 242.5 to 244 °C.

The melting point is the temperature of the solid-liquid transition.

The values above are taken from patent publication US20020038028A1, “7-Hetero-bicyclo[2.2.1]-heptanes” (priority 1998, published 2002).
